Assay results reported in US20140186329A1, “POLYPHENOL ANALOGS TO TREAT ISCHEMIA” (priority 2011, published 2014).
Read-outs that look alike come from different tables or passages of the source.

Legend:
[1] = TEAC, ABTS decolorization assay; settings: relative to Trolox
Protocol: TEAC values for the flavonoids were determined as described (Maher, P. et al., Free Radical Research. (2006), supra). Briefly, 250 μl of 2,2′-azinobis(3-ethylbenzothiazoline 6-sulfonate) (ABTS) treated overnight with potassium persulfate and diluted to an OD of ˜0.7 at 734 nm was added to 2.5 μl of a derivative solution in ethanol. The change in absorbance due to the reduction of the ABTS radical cation was measured at 734 nm for 4 min. To calculate the TEAC, the gradient of the plot of the percentage inhibition of absorbance vs. concentration for the derivative in question was divided by the gradient of the plot for Trolox.
(§1) Cell viability was determined after 24 hr by the MTT assay. The ability to maintain GSH (GSH) was determined by treating HT22 cells with different doses of each derivative (1-10 μM) in the presence of 5 mM glutamate. After 24 hr cell extracts were prepared and analyzed for total GSH. Fisetin (10 μM) was used as a positive control. The ability to induce PC12 cell differentiation (PC 12 diff' n) was determined by treating PC12 cells in N2 medium with different doses of each derivative (1-10 μM) for 24 hr. Differentiation was assessed by visual inspection with Fisetin (10 μM) as a positive control. Anti-inflammatory activity (microglia) was assessed in N9 microglial cells treated with bacterial lipopolysaccharide alone or in the presence different doses of each derivative (1-10 μM) for 24 hr. Fisetin was used as a positive control. TEAC values, a measure of direct antioxidant activity, were determined using the ABTS decolorization assay.

HT22 cells [2] = assay: Maintenance of total GSH in the presence of glutamate; format: cell-based, mouse; settings: derivative 1-10 μM, 5 mM glutamate, 24 hr
Protocol: Total intracellular glutathione was determined by a chemical assay as described (Maher, P. et al., Free Radical Research. (2006) 40 (10), 1105-1111).
(§2) Three secondary screens allowed assessment of three key activities of Fisetin that are highly relevant to stroke, as well as other neurological disorders: maintenance of glutathione (GSH), the major endogenous cellular antioxidant, inhibition of LPS-induced microglial activation, an indicator of anti-inflammatory activity and PC 12 cell differentiation, a measure of neurotrophic activity. All of these activities are relevant to the nerve cell loss seen in stroke (Gelderblom, et al., Stroke. 2009, 40 (5), 1849-1857; Pandya, et al., Cent. Nerv. Syst. Agents. Med. Chem. (2011) April 27; Lewerenz, et al., J. Neurochem. (2010) 113 (2), 502-504). […] To assess GSH maintenance, total intracellular GSH levels after a 24 hr treatment with the compound both in the absence and presence of glutamate, an inducer of GSH loss and oxidative stress (Tan, et al., Curr. Top. Med. Chem. (2001) 1, 497-506; Maher, et al., Free Radical Research. (2006) 40 (10), 1105-1111) was measured. Inhibition of LPS-induced microglial activation was determined by treating N9 mouse microglial cells with LPS alone and in the presence of the compounds and assaying NO release into the medium 24 hr later (Zheng, et al., Int. Immunopharmacol. (2008) 8, (3), 484-494). PC12 cell differentiation was determined by treating PC12 cells with the compounds and looking at neurite outgrowth after 24 hr. In all cases, Fisetin was used as a positive control (Sagara, et al., J. Neurochem. (2004) 90, 1144-1155).
as §1

PC12 cells = assay: PC12 cell differentiation (neurite outgrowth); format: cell-based; settings: N2 medium, derivative 1-10 μM, 24 hr, visual inspection
Protocol: PC 12 cells in N2 medium were treated with the derivatives (1-10 μM) or Fisetin (10 μM) as a positive control for 24 hr at which time the cells were scored for the presence of neurites. PC12 cells produce neurites much more rapidly when treated in N2 medium than when treated in regular growth medium. For each treatment, 100 cells in each of three separate fields were counted. Cells were scored positive if one or more neurites>1 cell body diameter in length were observed.
as §2, §1

HT22 cells [3] = assay: In vitro ischemia assay (HT22 cell IAA assay, MTT); format: cell-based, mouse; settings: for Emax: HT-22, HT22 Cell IAA assay, read-out: Max Protection; for fold improvement of neuroprotective activity/potency relative to Fisetin: in vitro ischemia, HT22/IAA
Protocol: Cell viability was determined by a modified version of 3-(4,5-dimethylthiazol-2-yl)-2,5-diphenyl tetrazolium bromide (MTT) assay based on the standard procedure (Maher, et al., Brain Research. (2007), supra). Cells were seeded onto 96-well microtiter plates at a density of 5×10^3 cells per well. For the in vitro ischemia assay, the next day, the medium was replaced with DMEM supplemented with 7.5% DFCS and the cells were treated with 20 μM iodoacetic acid (IAA) alone or in the presence of the different derivatives. After 2 hr the medium in each well was aspirated and replaced with fresh medium without IAA but containing the derivatives. 20 hr later, the medium in each well was aspirated and replaced with fresh medium containing 2.5 μg/ml MTT. After 4 hr of incubation at 37° C., the cells were solubilized with 100 μl of a solution containing 50% dimethylformamide and 20% SDS (pH 4.7). The absorbance at 570 nm was measured on the following day with a microplate reader (Molecular Devices). Results were confirmed by visual inspection of the wells. Controls included compound alone to test for toxicity and compound with no cells to test for interference with the assay chemistry.
For a primary screen, an in vitro ischemia model in combination with the HT22 nerve cell line (Maher, et al., Brain Research. (2007) 1173, 117-125) was chosen. […] To induce ischemia in the HT22 cells we used iodoacetic acid (IAA), a well-known, irreversible inhibitor of the glycolytic enzyme glyceraldehyde 3-phosphate dehydrogenase (G3PDH) (Winkler, et al., Exp. Eye Res. (2003) 76, 715-723). IAA has been used in a number of other studies to induce ischemia in nerve cells (Reshef, et al., Neurosci. Lett. (1997) 238, 37-40; Sperling, et al., Neursci. Lett. (2003) 351, 137-140; Rego, et al., Neurochem. Res. (1999) 24, 351-358; Sigalov, et al., J. Mol. Neurosci. (2000) 15, 147-154; and Reiner, et al., Neurosci. Lett. (1990) 119, 175-178), including several recent screens for neuroprotective molecules (Biraboneye, et al., J. Med. Chem. (2009) 52 (14), 4358-4369; Biraboneye, et al., Chem. Med. Chem. (2010) 5 (1), 79-85). The changes following IAA treatment of neural cells are very similar to those seen in animal models of ischemic stroke (Lipton, et al., Physiol. Rev. (1999) 79, 1431-1568) and include alterations in membrane potential (Reiner, et al., Neurosci. Lett. (1990) 119, 175-178), breakdown of phospholipids (Taylor, et al., J. Pharmacol. Exp. Ther. (1996) 276, 1224-1231), loss of ATP (Winkler, et al., Exp. Eye Res. (2003) 76, 715-723; Sperling, et al., Neursci. Lett. (2003) 351, 137-140) and an increase in reactive oxygen species (ROS) (Taylor, et al., J. Pharmacol. Exp. Ther. (1996), supra; and Sperling, et al., Neursci. Lett. (2003) 351, 137-140).
as §1
For rapid screening of chemical libraries, a mouse HT22 hippocampal cell death assay induced by addition of the compound iodoacetic acid (IAA) was used. IAA is a well-known, irreversible inhibitor of the glycolytic enzyme glyceraldehyde 3-phosphate dehydrogenase (G3PDH). […]

[4] = Mus musculus, HT-22, HT22 cells, 20 μM IAA for 2 hr, viability after 24 hr by MTT, read-out: EC50 in vitro ischemia
[5] = Mus musculus, HT-22, HT22 cells, 20 μM IAA, read-out: HT22 Cell IAA assay EC50
[6] = HT22 cells, 20 μM IAA, read-out: HT22 Cell IAA assay EC50

Structure (SMILES) | TEAC [1] | GSH (ability to maintain GSH) (HT22 cells [2]) | PC12 diff'n (ability to induce PC12 cell differentiation) (PC12 cells) | EC50 (HT22 cells [3]; [4]) | EC50 (HT22 cells [3]; [5]) | Emax (HT22 cells [3]; Mus musculus) | fold improvement of neuroprotective activity/potency relative to Fisetin (HT22 cells [3]) | EC50 (HT22 cells [3]; [6])
CN(C)c1ccc(-c2cc(=O)c3ccc4ccccc4c3o2)cc1 [CMS-120, 2-(4-(dimethylamino)phenyl)-4H-benzo[h]chromen-4-one] | 0.24 | no | no | 250 nM | – | – | – | –
Cc1cc2oc(-c3ccc(O)cc3O)c(O)c(=O)c2cc1C [CMS-093, 2-(2,4-dihydroxyphenyl)-3-hydroxy-6,7-dimethyl-4H-chromen-4-one] | 1.56 | no | no | > 500 nM | – | – | – | –
CC(C)Oc1cc(-c2ccc(N3CCCC3)cc2)nc2ccccc12 [CMS-113, 4-isopropoxy-2-(4-(pyrrolidin-1-yl)phenyl)quinoline] | 0.27 | no | no | 500 nM | – | – | – | –
COc1cc(/C=C/C(=O)c2ccc3ccccc3c2O)ccc1N1CCCC1 [CMS-137, (E)-1-(1-hydroxynaphthalen-2-yl)-3-(3-methoxy-4-(pyrrolidin-1-yl)phenyl)prop-2-en-1-one] | – | – | – | – | 85 nM | 75% | – | –
COc1cc(-c2ccc(O)cc2O)nc2ccccc12 [CMS-083, 4-methoxy-2-(2,4-dihydroxyphenyl) quinoline] | 0.05 | no | no | > 500 nM | – | – | – | –
COc1ccc(/C=C/C(=O)c2cc(C)c(C)cc2O)cc1O [CMS-088, (E)-1-(2-hydroxy-4,5-dimethylphenyl)-3-(3-hydroxy-4-methoxyphenyl)prop-2-en-1-one] | 0.12 | no | no | 200 nM | – | – | – | –
CCOc1ccc(-c2oc3cc(C)c(C)cc3c(=O)c2O)cc1OCC [CMS-025, 2-(3,4-diethoxyphenyl)-3-hydroxy-6,7-dimethyl-4H-chromen-4-one] | 0.84 | no | no | 500 nM | – | – | – | –
Cc1cc2oc(-c3ccc(N4CCCC4)cc3)cc(=O)c2cc1C [CMS-116, 6,7-dimethyl-2-(4-(pyrrolidin-1-yl)phenyl)-4H-chromen-4-one] | 0.12 | no | no | > 500 nM | – | – | – | –
COc1cc(-c2oc3c(ccc4ccccc43)c(=O)c2O)ccc1O [CMS-070, 3-hydroxy-2-(4-hydroxy-3-methoxyphenyl)-4H-benzo[h]chromen-4-one] | 0.63 | no | yes | > 500 nM | – | – | – | –
O=c1cc(-c2ccc(O)c(O)c2)oc2ccc3ccccc3c12 [PM-003] | – | – | – | – | 80 nM | – | ~40 fold | –
O=C(/C=C/c1ccc(N2CCCC2)c(O)c1)c1ccc2ccccc2c1O [CMS-138, (E)-3-(3-hydroxy-4-(pyrrolidin-1-yl)phenyl)-1-(1-hydroxynaphthalen-2-yl)prop-2-en-1-one] | – | – | – | – | 70 nM | 72% | – | –
COc1cc(-c2oc3cc(C)c(C)cc3c(=O)c2O)ccc1CCl [CMS-078, 2-(4-(chloromethyl)-3-methoxyphenyl)-3-hydroxy-6,7-dimethyl-4H-chromen-4-one] | – | – | – | – | 134 nM | – | – | –
O=C1/C(=C/c2ccc(O)c(O)c2)Oc2cc(O)ccc21 [PM-014] | – | – | – | – | 49 nM | – | – | –
COc1cc(-c2oc3c(ccc4ccccc43)c(=O)c2O)ccc1N1CCCC1 [CMS-139, 3-hydroxy-2-(3-methoxy-4-(pyrrolidin-1-yl)phenyl)-4H-benzo[h]chromen-4-one] | – | – | – | – | ≤ 100 nM | 92% | – | 50 nM
O=c1cc(-c2ccc(O)c(O)c2)oc2ccccc12 [PM-001] | – | – | – | – | 500 nM | – | 6 fold | –
CC(C)c1ccc(O)c(C(=O)/C=C/c2ccc(O)c(O)c2)c1 [CMS-129, (E)-3-(3,4-dihydroxyphenyl)-1-(2-hydroxy-5-isopropylphenyl)prop-2-en-1-one] | – | – | – | – | ≤ 100 nM | 81% | – | 80 nM
